Results on twelve compounds are retold here after patent publication US20100190980A1, “PYRAZINAMIDE COMPOUND” (Taisho Pharmaceutical Co., Ltd, priority 2007, published 2010).

In one experiment the test system is SD rats. The experiment is described as follows: Blood Glucose Level-Lowering Effect in SD rats. Type of experiment: in vivo, rat. The conditions noted are these: oral, 0.5% methyl cellulose group = 100%. As for the experimental part:
The effect of the compound of the present invention to decrease blood glucose level was investigated by use of SD rats.
SD rats were raised by free-feeding. From the caudal vein of 8-week old […], blood was taken and centrifugally separated to obtain the plasma. A blood glucose level of the plasma was measured by glucose CII test Wako. The rats were divided into groups of 6 rats so as to have the same average blood glucose level. In an agent administration group, a compound suspended in a 0.5% aqueous methyl cellulose solution was orally administered to the rats; whereas, in a control group, a 0.5% aqueous methylcellulose solution was orally administered. At 30 minutes, 60 minutes, 120 minutes, 240 minutes, 360 minutes and 480 minutes after the administration, blood was taken from the caudal vein of each rat. The plasma was centrifugally recovered and a blood glucose level was measured by use of glucose CII test Wako. Furthermore, a plasma insulin concentration was measured by an ultrasensitive rat insulin measuring kit (Morinaga Institute of Biological Science, Inc.). The blood glucose levels at individual time points were plotted to obtain a graph showing a change of blood glucose level.
Regarding the blood glucose level of the 0.5% methyl cellulose administration group as 100%, the blood glucose level of SD rats administrated with Compound No. 2 was indicated. In a 3 mg/kg administration group, the blood glucose level was 59% at 1 hour, 71% at 2 hours and 76% at 4 hours. Whereas, in a 10 mg/kg administration group, the blood glucose level was 53% at 1 hour, 68% at 2 hours, and 75% at 4 hours.

For a further experiment, the target named is T1, human liver GK (Homo sapiens, UniProt P35557).
T1 construct: GST (Glutathione S-transferase) (N); made in house; host or cells: Escherichia coli
T1 sequence (P35557 1-466 isoform P35557-2): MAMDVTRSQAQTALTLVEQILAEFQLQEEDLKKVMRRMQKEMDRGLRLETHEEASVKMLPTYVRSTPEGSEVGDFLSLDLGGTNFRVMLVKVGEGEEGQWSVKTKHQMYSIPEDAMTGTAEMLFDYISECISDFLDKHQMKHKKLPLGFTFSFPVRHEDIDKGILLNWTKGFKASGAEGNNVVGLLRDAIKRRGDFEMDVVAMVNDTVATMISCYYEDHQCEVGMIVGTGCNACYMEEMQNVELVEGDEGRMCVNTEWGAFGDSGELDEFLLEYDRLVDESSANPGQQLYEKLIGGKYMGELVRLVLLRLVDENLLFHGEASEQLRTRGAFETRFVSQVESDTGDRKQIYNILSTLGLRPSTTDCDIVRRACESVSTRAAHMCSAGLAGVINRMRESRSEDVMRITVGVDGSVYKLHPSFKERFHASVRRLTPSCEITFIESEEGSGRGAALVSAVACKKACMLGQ
Put plainly: GK Activation Test. The class given is biochemical. The conditions noted are these: 4 mM 14C-labeled glucose; for EC50: concentration activating GK to 50% of the maximum activation value. As for the experimental part: A GK activation by a test compound was tested by partially modifying the method of Irwin A. Rose et al. (J. Biol. Chem. 1964 January; 239: 12-7).
The enzyme source used in this assay was human liver GK, which was allowed to express by Escherichia coli as a fusion protein having GST (Glutathione S-transferase) added to the amino terminal and purified by Glutathione Sepharose 4B (Amersham Biosciences).
The test was performed by using flat-bottom 96-well plates (Sumitomo Bakelite Co., Ltd). To each of the wells of plates, a dimethyl sulfoxide (DMSO) solution of a test compound and DMSO serving as a control were added so as to obtain a final DMSO concentration of 1%. Furthermore, 25 mM Hepes-KOH (pH=7.1), 25 mM KCl, 2 mM MgCl2, 2 mM ATP, 4 mM ^14C-labeled glucose (Amersham Pharmacia) and 1 mM DTT (dithiothreitol) (these concentrations were final concentrations) were added. Finally, human liver GK was added so as to obtain 0.24 μg/well. The reaction was initiated and carried out at room temperature.
Twenty minutes later, AG1-X4 resin (BioRad), which was suspended with 25 mM Hepes-KOH (pH=7.1), was added and allowed to bind a reaction product, a labeled glucose-6-phosphate. The whole quantity was transferred to a multi-screen plate (Millipore) and the resin was washed with water. Thereafter, labeled glucose-6-phosphate bound to the resin was eluted with a 0.5 M NaCl solution. The activity of the labeled glucose-6-phosphate eluted was measured and used as an index of GK activity.
Regarding the GK activity of a control group in a well in which DMSO alone was added as 100%, the GK activity activated by the test compound to a maximum was indicated as the maximum activation value (Emax value). Furthermore, the concentration of a test compound required for activating GK activity to 50% of the maximum activation value was indicated as an EC50 value.

SMILES strings stand for the structures.

Take `Cn1ccc(NC(=O)c2nc(Sc3nnc[nH]3)cnc2Sc2ccc(F)cc2)n1` [Compound No. 2, 3-[(4-fluorophenyl)sulfanyl]-N-(1-methyl-1H-pyrazol-3-yl)-6-(4H-1,2,4-triazol-3-ylsulfanyl)pyrazine-2-carboxamide]: the blood glucose level in the experiment on SD rats (3 mg/kg, at 1 hour) was 59%; in the experiment on SD rats (3 mg/kg, at 2 hours), 71%; in the experiment with SD rats (3 mg/kg, at 4 hours) it was 76%; in the experiment on SD rats (10 mg/kg, at 1 hour), 53%; with SD rats (10 mg/kg, at 2 hours), 68%; in the experiment on SD rats (10 mg/kg, at 4 hours) it was 75%. In addition, on human liver GK, the midpoint of the response, the EC50, lay at 104 nM.

Turning to `Cn1ccc(NC(=O)c2nc(Sc3nnc[nH]3)cnc2SC2CCCCC2)n1` [Compound No. 5, 3-(cyclohexylsulfanyl)-N-(1-methyl-1H-pyrazol-3-yl)-6-(4H-1,2,4-triazol-3-ylsulfanyl)pyrazine-2-carboxamide], the EC50 (usually the concentration giving half of the maximal effect) on human liver GK amounted to 171 nM.

In turn, `Cn1ccc(NC(=O)c2nc(Sc3nnc[nH]3)cnc2Sc2ccncc2)n1` [Compound No. 24, N-(1-methyl-1H-pyrazol-3-yl)-3-(pyridin-4-ylsulfanyl)-6-(4H-1,2,4-triazol-3-ylsulfanyl)pyrazine-2-carboxamide] had a half-maximal effective concentration (EC50) at human liver GK of 110 nM. As to `O=C(NC1=NCCS1)c1nc(Sc2nnc[nH]2)cnc1Sc1ccc(F)cc1` [Compound No. 25, N-(4,5-dihydro-1,3-thiazol-2-yl)-3-[(4-fluorophenyl)sulfanyl]-6-(4H-1,2,4-triazol-3-ylsulfanyl)pyrazine-2-carboxamide], the response at human liver GK was half-maximal at 365 nM (EC50).

At human liver GK, `O=C(Nc1cnccn1)c1nc(Sc2nnc[nH]2)cnc1Sc1ccc(F)cc1` [Compound No. 29, 3-[(4-fluorophenyl)sulfanyl]-N-(pyrazin-2-yl)-6-(4H-1,2,4-triazol-3-ylsulfanyl)pyrazine-2-carboxamide] returned an EC50 of 89.5 nM. This EC50 is about 4.1-fold lower than that of the compound before. Compound `COCCn1ccc(NC(=O)c2nc(Sc3nnc(C)[nH]3)cnc2Sc2ccc(F)cc2)n1` [Compound No. 30, 3-[(4-fluorophenyl)sulfanyl]-N-[1-(2-methoxyethyl)-1H-pyrazol-3-yl]-6-[(5-methyl-4H-1,2,4-triazol-3-yl)sulfanyl]pyrazine-2-carboxamide] came in with an EC50 at human liver GK of 397 nM. The same measure, in the same setting: next, `O=C(O)c1ccc(NC(=O)c2nc(Sc3nnc[nH]3)cnc2Sc2ccc(F)cc2)nc1` [Compound No. 35, 6-[({3-[(4-fluorophenyl)sulfanyl]-6-(4H-1,2,4-triazol-3-ylsulfanyl)pyrazin-2-yl}carbonyl)amino]pyridine-3-carboxylic acid]: 72.4 nM; `Cc1nnc(Sc2cnc(Sc3ccc(F)cc3)c(C(=O)Nc3ccn(C)n3)n2)[nH]1` [Compound No. 38, 3-[(4-fluorophenyl)sulfanyl]-N-(1-methyl-1H-pyrazol-3-yl)-6-[(5-methyl-4H-1,2,4-triazol-3-yl)sulfanyl]pyrazine-2-carboxamide]: 117 nM; `Cn1ccc(NC(=O)c2nc(Sc3nncs3)cnc2Sc2ccc(F)cc2)n1` [Compound No. 41, 3-[(4-fluorophenyl)sulfanyl]-N-(1-methyl-1H-pyrazol-3-yl)-6-(1,3,4-thiadiazol-2-ylsulfanyl)pyrazine-2-carboxamide]: 311 nM.

On human liver GK, `COc1ccc(Sc2ncc(Sc3nnc[nH]3)nc2C(=O)Nc2cnccn2)cc1` [Compound No. 46, 3-[(4-methoxyphenyl)sulfanyl]-N-pyrazin-2-yl-6-(4H-1,2,4-triazol-3-ylsulfanyl)pyrazine-2-carboxamide] registered an EC50 of 59.4 nM. On the same count and under the same terms, next, `CSc1ccc(Sc2ncc(Sc3nnc(N)[nH]3)nc2C(=O)Nc2cnccn2)cc1` [Compound No. 51, 6-[(5-amino-4H-1,2,4-triazol-3-yl)sulfanyl]-3-{[4-(methylsulfanyl)phenyl]sulfanyl}-N-pyrazin-2-ylpyrazine-2-carboxamide]: 131 nM. For the compound `Cc1nnc(Sc2cnc(Sc3ccc(S(C)(=O)=O)cc3)c(C(=O)Nc3ccn(C)n3)n2)[nH]1` [Compound No. 52, N-(1-methyl-1H-pyrazol-3-yl)-3-{[4-(methylsulfonyl)phenyl]sulfanyl}-6-[(5-methyl-4H-1,2,4-triazol-3-yl)sulfanyl]pyrazine-2-carboxamide], the Emax (commonly the size of the effect at its maximum, as opposed to the concentration needed) on human liver GK (GK activity of DMSO control = 100%, 2 mM ATP, read-out: Emax (maximum activation value)) was determined as 883%. The compound also showed an EC50 on human liver GK of 128 nM.
